Measurements from patent US8653080B2, “Methods for screening and compounds that protect against amyloid diseases” (Salk Institute for Biological Studies, priority 2009, dated 2014).

Legend:
[1] = system: CL660 animals; experiment: vGFP signal scoring in transgenic C. elegans (CL660) expressing Aβ, liquid culture; type: in vivo; settings: compounds at 100 μM in S-media; 36 hours into adulthood; FIG. 18; control DMSO 0.1%
Description: Identification of compounds that inhibit aggregation-mediated proteotoxicity was carried out using transgenic C. elegans strain, which expresses human Aβ1-42 within body wall muscles under the direction of the myo-3 promoter cause by induction at 25 C and inhibition of smg-1 activity. This induction in the absence of an effective inhibitor causes association of a heat shock protein-GFP fusion construct with the Aβ1-42 (a schematic of this model is shown in FIG. 2).
Twenty-four hours after placing the L1-stage worms into the fridge, the plates were removed for fileting. Fifteen to twenty-five worms each were placed into wells of a microtiter plate containing compounds to be tested in an aqueous environment or a corresponding control. Only worms that were moving normally were filleted. The worms were incubated for approximately 36 hours or until L3 stage was reached. Aβ toxicity was then generated by growing the worms at 25 C for 18 hours which effects smg-1 activity. […] Typically the worms settled to the bottom of the well and were counted manually.
(§1) Animals were grown at 15° C. until adulthood. Gravid adults were suspended and bleached; eggs were resuspended in M9 salt solution and allowed to hatch for 24 hours at 15° C. Compounds were added to S-media at 100 μM concentration and then aliquoted to 48-well Costar plates at 400 μL per well. As a control, DMSO was added to S-media at 0.1% concentration. L1 hatched larvae were added to each well at 50-100 animals per 25 μL aliquot. Worms were thus grown in liquid media until reaching the third larval stage (L3) at 15° C. At L3 worms were shifted to 25° C. to begin biogenesis of Aβ protein. Observation began 24 hours later when the animals have reached adulthood (timepoint=0 hrs). Animals were scored as either with or without vGFP signal, regardless of intensity level.

[2] = system: CL660 animals; experiment: vGFP scoring in CL660 animals fed bacteria expressing RNAi (daf-16, hsf-1) plus compound; type: in vivo, C. elegans; settings: for effect of DAF-16 knockdown on the beneficial effects (vGFP) of the compound: daf-16 RNAi, FIG. 19; for effect of HSF-1 knockdown on vGFP expression with the compound: hsf-1 RNAi, FIG. 20
Description: as §1
In order to determine a pathway the compounds are acting upon, experiments were performed with genetics already known to be involved in the handling of Aβ aggregation. The insulin/IGF-1 pathway plays a role in the handling of cellular stress. DAF-2 is the sole insulin/IGF-1 receptor in C. elegans and depletion of DAF-2 results in long-lived, stress resistant worms. The Aβ protein applies a biochemical stress to cellular activity as shown by the hsp-16.2 activity in response to its presence. […] DAF-16 encodes a FOXO transcription factor and is required for the lifepan extension in worms fed daf-2RNAi. HSF-1 is also required for the lifespan extension seen in worms fed daf-2 RNAi.
CL660 animals were fed bacteria expressing RNAi suspended in S-basal solution.

SMILES | vGFP in CL660 animals compared to control [1] | effect of DAF-16 knockdown on the beneficial effects (vGFP) of the compound [2] | effect of HSF-1 knockdown on vGFP expression with the compound [2]
O=C(NCc1ccccc1)C1C(=O)N[C@@H](COCc2ccccc2)C(=O)N1Cc1cccnc1 (some centres unmarked) [E7] | reduced vGFP |  | 
CCC(CC)N1C(=O)[C@H](COCc2ccccc2)NC(=O)C1C(=O)NCc1ccccc1 (some centres unmarked) [F7] | reduced vGFP | partially suppressed the beneficial effects | no effect on vGFP expression
CCCCN1C(=O)[C@H](COCc2ccccc2)NC(=O)C1C(=O)NCc1ccccc1 (some centres unmarked) [D7] | reduced vGFP | partially suppressed the beneficial effects | no effect on vGFP expression
O=C(NCc1ccccc1)C1C(=O)N[C@@H](COCc2ccccc2)C(=O)N1C1CCCC1 (some centres unmarked) [H7] | reduced vGFP |  | 
